The source of these data is paper PMC9490236, “Accurate de novo design of membrane-traversing macrocycles” (Cell, 2022).

The conditions of data set [1]: PAMPA.
The next data set is described as follows: in vitro. As to conditions: PAMPA, PAMPA_Papp_Avg.
The test system of another data set is Caco-2 cells. As to the kind of experiment: Caco-2 permeability assay (apical to basolateral). The format is in vitro ADME, human. Details: Caco_R1 / Caco_R3: unit not given here. The protocol:
(§1) Human colon adenocarcinoma-derived Caco-2 cell line was used as a model system to investigate the intestinal epithelial permeability of our designs. Caco-2 cells were propagated in T125 flasks (Corning, Merck) using Dulbecco’s modified Eagle medium supplemented with 10% (v/v) fetal bovine serum, 1% (v/v) nonessential amino acids, and 1% (v/v) penicillin-streptomycin (Gibco, Thermo Fisher Scientific) at 37°C in an atmosphere of 5% CO2. Cells were subcultured when they reached 80% confluence.
(§2) The permeability of designed peptides was evaluated using an accelerated 6-day Caco-2 permeability assay as described previously ([Sevin et al., 2013]). In brief, cells were seeded into the 12-well Transwell plates with 0.4 μm polyester membrane inserts (Corning, Merck) to give 4.0 × 10^5 cells/well. The complete assay medium contained Dulbecco’s modified Eagle medium supplemented with 10% (v/v) fetal bovine serum, 1% (v/v) nonessential amino acids, and 0.4 μg/mL puromycin. The medium in plates was renewed every second day. The inserts received 0.75 mL of assay medium in the upper compartment (apical chamber) and 1.5 mL in the bottom compartment (basolateral chamber) individually. After 6-day incubation or until the cells formed monolayers, the medium in the apical and basolateral chamber was replaced with peptide solutions at 50 μM or Hanks' Balanced Salt Solution (HBSS), separately. The plates were incubated for 90 min at 37°C on an orbital shaker (60 rpm). The peptide concentration of solutions in the apical and basolateral compartments was subsequently quantified using LC-MS (Qstar Elite, AB Sciex Australia) to evaluate the transmembrane flux of peptides in the apical-to-basolateral direction. Membrane integrity of the Caco-2 cell monolayer was validated using trans-epithelial electrical resistance (TEER) measurements before and after the assays. Atenolol and quinidine were included as negative and positive controls in all assays.

The nature of data set [2]: Caco-2 permeability assay (apical to basolateral). The class given is in vitro ADME, human. Details: Caco_R1 / Caco_R3: unit not given here. The method, then: as §1, §2
The mark [3] stands for this setting: Caco-2, average of 3 replicates, read-out: Caco_Papp_Average.

Read-outs that look alike come from different tables or passages of the source. Where a SMILES comes first, the peptide text is derived from it. [ ]: non-standard residue; d: D form. NMeF = CN[C@@H](Cc1ccccc1)C(=O)O; NMeL = CN[C@@H](CC(C)C)C(=O)O; dNMeL = CN[C@H](CC(C)C)C(=O)O; NMeV = CN[C@H](C(=O)O)C(C)C; Aib = CC(C)(N)C(=O)O

In data set [1], `CC[C@H](C)[C@@H]1NC(=O)[C@@H](CC(C)C)NC(=O)[C@H](CC(C)C)N(C)C(=O)[C@H](Cc2ccccc2)NC(=O)CN(C)C(=O)[C@@H]2CCCN2C(=O)[C@H](C(C)C)NC(=O)[C@H](Cc2ccccc2)N(C)C(=O)[C@H]2CCCN2C(=O)[C@H](CC(C)C)NC1=O` (single isomer, unassigned) [Design D10.1.p1, DLEU ILE LEU DPRO *PHE VAL PRO *GLY PHE *LEU] yielded a PAMPA_R1 of 4.75E-06 and a PAMPA_R3 of 3.42E-06. The compound also returned an apparent permeability (Papp) in the data set “in vitro” of 3.92 ×10⁻⁶ cm/s. Further, in the data set on Caco-2 cells (Caco-2), the Caco_R1 stood at 8.51 and the Caco_R3 is given as 8.51. For the same compound, the Papp A→B in data set [2] (Caco-2, Caco_Papp_Average) worked out at 8.65 ×10⁻⁶ cm/s.

`CC[C@H](C)[C@@H]1NC(=O)[C@@H](CC(C)C)NC(=O)[C@H](CC(C)C)N(C)C(=O)[C@H](Cc2ccccc2)NC(=O)CN(C)C(=O)[C@@H]2CCCN2C(=O)[C@H](C(C)C)NC(=O)[C@H](Cc2ccccc2)N(C)C(=O)[C@H]2CCCN2C(=O)[C@H](CC(C)C)NC1=O` (single isomer, unassigned) [Design D10.1.p2, DLEU ILE LEU DPRO *PHE VAL PRO *GLY PHE *LEU] displayed a Caco_R1 with Caco-2 cells (Caco-2 Papp, replicate 1) of 2.58. In the data set with Caco-2 cells (Caco-2 Papp, replicate 3), this compound came in with a Caco_R3 of 4.01. In data set [2] (setting [3]), the Papp A→B is 3.6 ×10⁻⁶ cm/s.

In data set [1], `CC(C)C[C@@H]1NC(=O)[C@@H]2CCCN2C(=O)[C@@H](Cc2ccccc2)NC(=O)[C@H](C)N(C)C(=O)[C@H](CC(C)C)NC(=O)[C@H](CC(C)C)N(C)C(=O)[C@@H](C)NC(=O)[C@@H](CC(C)C)NC(=O)[C@@H]2CCCN2C(=O)[C@@H](Cc2ccccc2)NC1=O` (single isomer, unassigned) [Design D10.2.p1, LEU DPHE PRO DLEU DALA *LEU LEU *ALA DPHE PRO] had a PAMPA_Papp_Avg of 3.92E-06, a PAMPA_R1 of 4.51E-06 and a PAMPA_R3 of 3.88E-06. For the same compound, in the data set on Caco-2 cells (Caco-2), the Caco_R1 was 8.83 and the Caco_R3 stood at 11.73. Further, in data set [2] (Caco-2, Caco_Papp_Average), the Papp A→B stood at 9.76 ×10⁻⁶ cm/s.

On to `CC[C@H](C)[C@@H]1NC(=O)[C@@H](C(C)C)NC(=O)[C@@H]2CCCN2C(=O)[C@@H](CC(C)C)N(C)C(=O)[C@@H](C(C)C)NC(=O)[C@H](CC(C)C)N(C)C(=O)[C@H]2CCCN2C(=O)[C@@H](C)NC(=O)[C@H](Cc2ccccc2)N(C)C(=O)[C@H]2CCCN2C1=O` (single isomer, unassigned) [Design D10.3.p1, ILE DPRO *PHE DALA DPRO *LEU DVAL *DLEU PRO DVAL], for which, in data set [1], the PAMPA_R1 is 3.04E-06 and the PAMPA_R3 turned out to be 1.85E-06. For the same compound, the Papp in “in vitro” is 2.52 ×10⁻⁶ cm/s. In addition, in the data set with Caco-2 cells (Caco-2), the Caco_R1 turned out to be 1.3 and the Caco_R3 was 6.15. This compound also yielded a Papp A→B in data set [2] (Caco-2, Caco_Papp_Average) of 3.15 ×10⁻⁶ cm/s.

In the data set on Caco-2 cells (Caco-2 Papp, replicate 1), `CC[C@H](C)[C@@H]1NC(=O)[C@@H](C(C)C)NC(=O)[C@@H]2CCCN2C(=O)[C@@H](CC(C)C)N(C)C(=O)[C@@H](C(C)C)NC(=O)[C@H](CC(C)C)N(C)C(=O)[C@H]2CCCN2C(=O)[C@@H](C)NC(=O)[C@H](Cc2ccccc2)N(C)C(=O)[C@H]2CCCN2C1=O` (single isomer, unassigned) [Design D10.3.p2, ILE DPRO *PHE DALA DPRO *LEU DVAL *DLEU PRO DVAL] displayed a Caco_R1 of 4.05. In addition, the Caco_R3 in the data set on Caco-2 cells (Caco-2 Papp, replicate 3) worked out at 2.63. In addition, in data set [2] (setting [3]), the Papp A→B is 4.43 ×10⁻⁶ cm/s.

As for `CC(C)C[C@@H]1C(=O)N(C)[C@@H](CC(C)C)C(=O)N2CCC[C@@H]2C(=O)N[C@H](CC(C)C)C(=O)N[C@H](C)C(=O)N2CCC[C@@H]2C(=O)N2CCC[C@H]2C(=O)N[C@@H](C)C(=O)N[C@H](Cc2ccccc2)C(=O)N[C@H](CC(C)C)C(=O)N[C@@H](C(C)C)C(=O)N1C` (single isomer, unassigned) [Design D11.9.p2, VAL *DLEU *LEU DPRO DLEU DALA DPRO PRO ALA DPHE DLEU], in data set [1], the PAMPA_Papp_Avg result is “BQL”, the PAMPA_R1 result is given as “BQL” and the PAMPA_R3 entry is “BQL”. In the data set on Caco-2 cells (Caco-2), this compound showed a Caco_R1 of 2.62 and a Caco_R3 of 4.02. In data set [2] (Caco-2, Caco_Papp_Average), this compound yielded a Papp A→B of 4.03 ×10⁻⁶ cm/s.

In data set [1], `CC(C)C[C@@H]1NC(=O)[C@@H](CC(C)C)NC(=O)[C@H]2CCCN2C(=O)[C@H](CC(C)C)NC(=O)[C@@H](CC(C)C)NC(=O)[C@H](CC(C)C)NC(=O)[C@@H]2CCCN2C(=O)[C@@H](C)NC1=O` [Design D8.1, DLEU LEU DPRO DLEU LEU DALA PRO LEU] (cyclo(L[dA]PL[dL]L[dP][dL])) returned a PAMPA_R1 of 7.08E-06 and a PAMPA_R3 of 6.42E-06. Moreover, in “in vitro”, the Papp was found to be 6.94 ×10⁻⁶ cm/s. In the data set on Caco-2 cells (Caco-2), this compound showed a Caco_R1 of 27.58 and a Caco_R3 of 23.71. Also, the apparent permeability (Papp) in data set [2] (Caco-2) worked out at 23.3 ×10⁻⁶ cm/s. Moreover, the Papp A→B in data set [2] (Caco-2, Caco_Papp_Average) was determined as 23.3 ×10⁻⁶ cm/s.

Take `CC[C@@H](C)[C@H]1NC(=O)[C@@H](CC(C)C)NC(=O)C(C)(C)NC(=O)[C@@H]2CCCN2C(=O)[C@@H]([C@H](C)CC)NC(=O)[C@@H](CC(C)C)NC(=O)C(C)(C)NC(=O)[C@@H]2CCCN2C1=O` [Design D8.2, PRO AIB DLEU DILE PRO AIB DLEU DILE] (cyclo([Aib][dL][dI]P[Aib][dL][dI]P)): in data set [1], the PAMPA_R1 was 7.36E-06 and the PAMPA_R3 amounted to 1.04E-05. For the same compound, the Papp in “in vitro” was 7.49 ×10⁻⁶ cm/s. Also, in the data set on Caco-2 cells (Caco-2), the Caco_R1 is given as 8.98 and the Caco_R3 is 13.19. The Papp A→B in data set [2] (Caco-2, Caco_Papp_Average) was 11.7 ×10⁻⁶ cm/s.

As for `CC[C@@H](C)[C@H]1NC(=O)[C@@H](CC(C)C)NC(=O)[C@@H](CC(C)C)N(C)C(=O)[C@@H]2CCCN2C(=O)[C@@H](C(C)C)NC(=O)[C@@H](CC(C)C)NC(=O)[C@@H](CC(C)C)N(C)C(=O)[C@@H]2CCCN2C1=O` [Design D8.3.p2, DLEU DVAL PRO *DLEU DLEU DILE PRO *DLEU] (cyclo(P[dNMeL][dL][dI]P[dNMeL][dL][dV])), in data set [1], the PAMPA_Papp_Avg entry is listed as “BQL”, the PAMPA_R1 result is listed as “BQL” and the PAMPA_R3 result was “BQL”. Further, in the data set on Caco-2 cells (Caco-2), the Caco_R1 was found to be 4.06 and the Caco_R3 was 1.54. The same compound registered a Papp A→B in data set [2] (Caco-2, Caco_Papp_Average) of 2.73 ×10⁻⁶ cm/s.

`CC(C)C[C@@H]1NC(=O)[C@@H](C(C)C)NC(=O)[C@H](Cc2ccccc2)N(C)C(=O)[C@H]2CCCN2C(=O)[C@H]2CCCN2C(=O)[C@@H](C)NC(=O)[C@H](Cc2ccccc2)N(C)C(=O)[C@H]2CCCN2C(=O)[C@@H](C(C)C)NC(=O)[C@@H]2CCCN2C1=O` [Design D10.4, *PHE DVAL LEU PRO DVAL DPRO *PHE DALA DPRO DPRO] (cyclo(LP[dV][dP][NMeF][dA][dP][dP][NMeF][dV])): the Caco_R1 in the data set with Caco-2 cells (Caco-2 Papp, replicate 1) stood at 1.39. In addition, in the data set on Caco-2 cells (Caco-2 Papp, replicate 3), the Caco_R3 was found to be 0.49. Besides, the Papp A→B in data set [2] (setting [3]) was 0.627 ×10⁻⁶ cm/s.

With `CC(C)C[C@H]1C(=O)N2CCC[C@@H]2C(=O)N(C)[C@@H](C(C)C)C(=O)N[C@@H](C(C)C)C(=O)N2CCC[C@H]2C(=O)N2CCC[C@@H]2C(=O)N[C@@H](C)C(=O)N[C@H](C(C)C)C(=O)N(C)[C@@H](CC(C)C)C(=O)N[C@@H](C)C(=O)N1C` [Design D10.5, PRO DPRO ALA DVAL *LEU ALA *LEU DPRO *VAL VAL] (cyclo(A[NMeL][dP][NMeV]VP[dP]A[dV][NMeL])), in the data set on Caco-2 cells (Caco-2 Papp, replicate 1), the Caco_R1 was 1.31. In the data set with Caco-2 cells (Caco-2 Papp, replicate 3), this compound came in with a Caco_R3 of 0.08. Moreover, the Papp A→B in data set [2] (setting [3]) worked out at 0.497 ×10⁻⁶ cm/s.
